According to patent EP1028948B1, “PHENYL-ALKYL-IMIDAZOLES AS H3 RECEPTOR ANTAGONISTS” (SCHERING CORPORATION, priority 1997, dated 1999):

Biological target: T1, H3 receptors (Cavia porcellus, UniProt Q9JI35)
T1 construct: The brain tissue was homogenized using a Polytron in a solution of 50 mM Tris, pH 7.5; from tissue; host or cells: guinea pig brain membranes
Assay: H3 Receptor Binding Assay
Settings: guinea pig brain membranes; 3 nM [3H]R-α-methylhistamine or 3 nM [3H]Nα-methylhistamine; 30°C for 30 min
Description: The source of the H3 receptors in this experiment was guinea pig brain. The animals weighed 400-600 g. […] The final concentration of tissue in the homogenization buffer was 10% w/v. […] The membranes were frozen and stored at -70°C until needed.
Membranes were then added (400 µg of protein) to the reaction tubes. […] Bound ligand was separated from unbound ligand by filtration, and the amount of radioactive ligand bound to the membranes was quantitated by liquid scintillation spectrometry.

T1 sequence (Q9JI35 whole entry): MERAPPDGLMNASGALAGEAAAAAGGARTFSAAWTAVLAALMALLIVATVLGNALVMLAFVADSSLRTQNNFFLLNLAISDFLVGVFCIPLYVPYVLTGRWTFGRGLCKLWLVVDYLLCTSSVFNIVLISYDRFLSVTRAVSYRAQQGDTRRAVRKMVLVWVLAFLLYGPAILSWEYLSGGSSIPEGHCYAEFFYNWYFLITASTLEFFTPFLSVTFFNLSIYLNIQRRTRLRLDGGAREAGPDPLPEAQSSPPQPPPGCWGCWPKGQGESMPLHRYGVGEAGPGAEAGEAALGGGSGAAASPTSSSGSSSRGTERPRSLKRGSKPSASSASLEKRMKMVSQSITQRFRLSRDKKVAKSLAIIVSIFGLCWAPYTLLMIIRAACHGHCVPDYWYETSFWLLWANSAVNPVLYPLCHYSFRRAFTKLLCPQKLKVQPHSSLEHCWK

## O=C(/C=C/c1ccc(Cc2c[nH]cn2)cc1)NCCc1ccc(Cl)cc1 [Compound 3]
  Ki: 1 to 19 nM
